Assay results reported in ChEMBL document CHEMBL1127276, “Chemical and plasma hydrolyses of a diphenyl -aminomethyl phosphonate prodrug inhibitor of neutral endopeptidase 24.11” (Bioorg Med Chem Lett, 1994).
One block for each compound: values may come before it.

Experiments:
[1] = In vitro half life at 1.5 -5.6ug/mL, 37 degree C in human plasma; type: ADME, cell-free
[2] = In vitro half life at 1.5 -5.6ug/mL, 37 degree C in monkey plasma; type: ADME, cell-free; settings: cercopithecidae
[3] = In vitro half life at 1.5 -5.6ug/mL, 37 degree C in dog plasma; type: ADME, Canis lupus familiaris
[4] = In vitro half life at 1.5 -5.6ug/mL, 37 degree C in rat plasma; type: ADME
[5] = Ionization constant in acidic (COOH)medium; type: physicochemical; settings: read-out: pKa2
[6] = Half life at a pH 12.01 in […] medium; type: ADME
[7] = Half life at a pH 8.5 in Na2HPO4/NaH2PO4 medium; type: ADME
[8] = Half life at a pH 8.78 in KHCO3 medium; type: ADME
[9] = Ionization constant in basic (NH2+) medium; type: physicochemical; settings: read-out: pKa4
[10] = Half life at a pH 13.65 in KOH medium; type: ADME
[11] = Half life at a pH 8.44 in NaHCO3 medium; type: ADME
[12] = Ionization constant in slightly acidic(POH) medium; type: physicochemical; settings: read-out: pKa3

Compound: O=C(O)CCNC(=O)[C@H](Cc1ccc(-c2ccccc2)cc1)NCP(=O)(O)Oc1ccccc1
half-life [1]: 4.2 h
half-life [2]: > 7.8 h
half-life [3]: 38 h
half-life [4]: 9.4 h
pKa [5]: 5.8
half-life [6]: > 0.1 h
half-life [7]: > 6 h
half-life [8]: 0.51 h
pKa [9]: 10
half-life [10]: > 6 min
half-life [11]: 0.55 h

Compound: O=C(O)CCNC(=O)[C@H](Cc1ccc(-c2ccccc2)cc1)NCP(=O)(Oc1ccccc1)Oc1ccccc1
half-life [1]: 1.4 h
half-life [2]: 4.7 h
half-life [3]: 13 h
half-life [4]: 2.5 h
half-life [6]: < 0.167 h
half-life [7]: > 96 h
half-life [8]: 8.19 h
half-life [10]: < 5 min
half-life [11]: 8.68 h

pKa [5]: 5.5
pKa [12]: 7.8
pKa [9]: 10
Compound: O=C(O)CCNC(=O)[C@H](Cc1ccc(-c2ccccc2)cc1)NCP(=O)(O)O
